# Laboratory results as given in patent publication EP0826686A2, “Tricyclic compounds, their production and use” (TAKEDA CHEMICAL INDUSTRIES, LTD., priority 1996, dated 1998).
# Counter-ions that a name gives are not always drawn.
# What was measured:
# [1] = tested on: Human skin fibroblasts (Hs68); assay: PDGF-induced proliferation in Hs68 cells (3H-thymidine uptake); type: cell-based; details: PDGF-BB 5 ng/ml, 24 hours; for inhibition at 3 µM: Concentration 3x10^-6 M; for inhibition at 0.3 µM: Concentration 3x10^-7 M; for inhibition at 1 µM: Concentration 1x10^-6 M
# Experimental: Experiments of PDGF-induced proliferation in Hs68 cells Method: Human skin fibroblasts (Hs68, Institute for Fermentation, Osaka) were seeded in 48-well plates precoated with collagen type I (Falcon) (25000 cells/well), and cultured for one day. Then, the cells were cultured in Dulbecco's modified Eagle's medium (high glucose) containing 0.1% bovine serum albumin for 48 hours. Fifteen (15) minutes after the addition of the drug, the cells were stimulated with 5 ng/ml of PDGF-BB (Becton Dickinson Labware) containing ^3H-thymidine (final concentration 0.4 mCi/ml) (Amersham). After 24 hours, the reaction was stopped with 7.5% trichloroacetic acid at 4°C and the plate was allowed to stand at 4°C for 30 minutes. The cells were washed with Ca^2+- and Mg^2+-free phosphate-buffered saline (PBS), after then 0.1% sodium dodecyl sulfate (SDS)/0.4N NaOH was added and the plate was allowed to stand at 37°C for 1 hour to lyze the cells. The whole content of each well was taken in a vial and neutralized with 1N HCl, and then toluene scintillator (Wako Pure Chemical Ind.) was added to each vial. After stirring, the amount of ^3H-thymidine incorporated in the cells was determined with a liquid scintillation counter. The cellular uptake of ^3H-thymidine was used as an indicator of cell proliferation. The effect of the drug on the PDGF-BB (5 ng/ml) uptake of ^3H-thymidine was expressed as % inhibition. […]
# [2] = tested on: Glomerular mesangial cells; assay: Inhibition of the proliferation of mesangial cells (PDGF-BB stimulated, 3H-thymidine uptake); type: cell-based, Sprague-Dawley rats; details: Rattus norvegicus, Glomerular mesangial cell, 24 h, PDGF-BB 5 ng/ml, read-out: Proliferation inhibiting activity (% Inhibition); for inhibition at 1 µM: Dose 10^-6 M; for inhibition at 3 µM: Dose 3 x 10^-6 M
# Experimental: Glomerular mesangial cells isolated from 4-week-old male Sprague-Dawley rats (Japan Clea) were cultured in a 24-well plate (Falcon) up to the subconfluence. The cells were subsequently cultured in Dulbecco's modified Eagle MEM containing 0.2% bovine serum albumin for 24 - 48 hours before addition of a drug substance. Fifteen minutes after the drug substance was added to the culture, the cells were allowed to react with 5 ng/ml of PDGF-BB (Becton Dickinson Labwere) for stimulation, simultaneously adding ^3H-Thymidine (final concentration 0.2 µ Ci/ml) (Amasham), for 24 hours. The reaction was blocked by adding 7.5 % TCA of 4°C. The mixture was allowed to stand at 4°C for 30 minutes. The cells were washed with phosphate buffered saline containing no Ca^2+ and Mg^2+. A 0.4N NaOH/0.1% sodium dodecyl sulfate (SDS) solution was added to the washed cells and the mixture was allowed to stand at 37°C for an hour to solubilize the cells. The whole qauntity was placed in a vial and neutralized with 1N HCl. Scintillator A (Wako Pure Chemicals) was added to this with stirring. The quantity of ^3H-Thymidine incorporated in the cells was measured by the liquid scintillation counter. The increase in the quantity of the incorporated ^3H-Thymidine was designated as the parameter of the cell proliferation. The inhibitory effect of a drug substance on the intake with PDGF-BB (5 ng/ml) was expressed as % inhibition (Table 1).
# SHC rats = assay: Urinary protein excretion in SHC rats; type: in vivo, Spontaneously hypercholesterolemic rats; details: 1 mg/kg/day oral once daily
# Excerpt: Experiments of urinary protein excretion in SHC rats Method: Spontaneously hypercholesterolemic rats (male, 7 weeks old) were given a drug suspended in 0.5% methylcellulose (100 cP) by oral administration once daily for 6 weeks. A control group was given 0.5% methylcellulose (100 cP) by the same route once daily. As a normal control group, Sprague-Dawley rats (SD rats) (male, 7 weeks old, CLEA Japan, Inc.) were given 0.5% methylcellulose (100 cP) orally once daily. Before the start of medication and at 2-weeks intervals after the first administration of drugs, urine was collected for twenty four hours and the total protein and albumin excreted in the urine were determined. The assay of total protein and albumin was carried out using the A/GB Test Wako (Wako Pure Chemical Ind.).
# [3] = duration of administration 0 weeks (before start of medication)
# [4] = duration of administration 2 weeks
# [5] = duration of administration 4 weeks
# [6] = duration of administration 6 weeks
structure (smiles),measurement,setting,value
"O=C1c2cnc3cccc(n23)CN1CC1CCN(S(=O)(=O)C(F)(F)F)CC1 [11(iii), 4,5-Dihydro-4-(1-trifluoromethanesulfonylpiperidin-4-ylmethyl)-3H-1,4,8b-triazaacenaphthylen-3-one hydrochloride]",inhibition at 3 µM,[1],59.2%
"Cc1nc2cccc3n(C[C@H]4CC[C@H](CNC(=O)C(F)(F)F)CC4)c(=O)c1n23 [Example 29, 1,2-Dihydro-3-methyl-1-[trans-4-(trifluoroacetylamino)methyl-1-cyclohexylmethyl]-1,4,7b-triazacyclopent[cd]inden-2-one]",inhibition at 3 µM,[1],76.1%
"Cc1nc2cccc3n(CCC4CCN(S(=O)(=O)C(F)(F)F)CC4)c(=O)c1n23 [Compound 3, 1,2-dihydro-3-methyl-1-[2-(1-trifluoromethanesulfonylpiperidin-4-yl)ethan-1-yl]-1,4,7b-triazacyclopent[cd]inden-2-one hydrochloride]",inhibition at 0.3 µM,[2]; Dose 3 x 10^-7 M,39%
same,inhibition at 1 µM,[2],91.1%
"O=c1c2cnc3cccc(n1CCC1CCN(S(=O)(=O)C(F)(F)F)CC1)n32 [Example 9(ii), 1,2-dihydro-1-[2-(1-trifluoromethanesulfonylpiperidin-4-yl)ethan-1-yl]-1,4,7b-triazacyclopent[cd]inden-2-one]",Urinary albumin,SHC rats; [3],12.0 mg/day
same,Urinary total protein,SHC rats; [3],39.2 mg/day
same,Urinary albumin,SHC rats; [4],10.9 mg/day
same,Urinary total protein,SHC rats; [4],50.4 mg/day
same,Urinary albumin,SHC rats; [5],46.2 mg/day
same,Urinary total protein,SHC rats; [5],91.3 mg/day
same,Urinary albumin,SHC rats; [6],129.9 mg/day
same,Urinary total protein,SHC rats; [6],199.4 mg/day
same,inhibition at 0.3 µM,[1],94.9%
"O=C1c2cnc3cccc(n23)CN1CCC1CCN(S(=O)(=O)C(F)(F)F)CC1 [12(ii), 4,5-Dihydro-4-[2-(1-trifluoromethanesulfonylpiperidin-4-yl)ethan-1-yl]-3H-1,4,8b-triazaacenaphthylen-3-one]",inhibition at 1 µM,[1],96.6%
"Cc1nc2cccc3n(CCC4CCN(C(=O)C(F)(F)C(F)(F)F)CC4)c(=O)c1n23 [Example 27, 1,2-Dihydro-3-methyl-1-[2-(1-pentafluoropropionylpiperidin-4-yl)ethan-1-yl]-1,4,7b-triazacyclopent[cd]inden-2-one]",inhibition at 1 µM,[1],62.7%
"CC(C)(C)OC(=O)N1CCC(CCn2c(=O)c3cnc4cccc2n43)CC1 [Example 2, 1,2-Dihydro-1-[2-(1-tert-butoxycarbonylpiperidin-4-yl)ethan-1-yl]-1,4,7b-triazacyclopent[cd]inden-2-one]",inhibition at 3 µM,[2],40.1%
same,inhibition at 10 µM,[2]; Dose 10^-5 M,58.3%
same,inhibition at 1 µM,[2],11.1%
"Cc1nc2cccc3n(CCCC4CCN(S(=O)(=O)C(F)(F)F)CC4)c(=O)c1n23 [Example 23, 1,2-Dihydro-3-methyl-1-[3-(1-trifluoromethanesulfonylpiperidin-4-yl)propan-1-yl]-1,4,7b-triazacyclopent[cd]inden-2-one]",inhibition at 0.3 µM,[1],44.6%
"Cc1nc2cccc3nc(SCCC4CCN(S(=O)(=O)C(F)(F)F)CC4)c1n23 [25(ii), 3-Methyl-2-[2-(1-trifluoromethanesulfonylpiperidin-4-yl)ethan-1-yl]thio-1,4,7b-triazacyclopent[cd]indene]",inhibition at 0.3 µM,[1],83.4%
"O=c1c2cnc3cccc(n1CC1CCN(S(=O)(=O)C(F)(F)F)CC1)n32 [8(ii), 1,2-Dihydro-1-(1-trifluoromethanesulfonylpiperidin-4-ylmethyl)-1,4,7b-triazacyclopent[cd]inden-2-one]",inhibition at 1 µM,[1],74.9%
"CC(C)(C)OC(=O)N1CCC(Cn2c(=O)c3cnc4cccc2n43)CC1 [Example 1, 1,2-Dihydro-1-(1-tert-butoxycarbonylpiperidin-4-ylmethyl)-1,4,7b-triazacyclopent[cd]inden-2-one]",inhibition at 3 µM,[2],39.4%
"O=C1c2cccc3ncc(n23)CN1CCC1CCN(S(=O)(=O)C(F)(F)F)CC1 [Example 19, 4,5-Dihydro-4-[2-(1-trifluoromethanesulfonylpiperidin-4-yl)ethan-1-yl]-3H-1,4,8b-triazaacenaphthylen-5-one]",inhibition at 1 µM,[1],72.8%
"Cc1ccc(S(=O)(=O)NC[C@H]2CC[C@H](Cn3c(=O)c4c(C)nc5cccc3n54)CC2)cc1 [Example 32, 1,2-Dihydro-3-methyl-1-[trans-4-(4-methylphenylsulfonylamino)methyl-1-cyclohexylmethyl]-1,4,7b-triazacyclopent[cd]inden-2-one]",inhibition at 1 µM,[1],80.3%
